Consider 18 molecules from US8937181B2, “Benzenesulfonamide compounds and the use thereof” (Purdue Pharma L.P., priority 2006, dated 2015).

Each structure is given as a SMILES string.

For assay [1], the target named is T1, N-type calcium channel (NTCC) (Homo sapiens, UniProt Q00975).
T1 construct: host or cells: IMR32 cells differentiated with dibutyryl cAMP and bromodeoxyuridine
Put plainly: FLIPR calcium mobilization assay for N-type calcium channel. Type of assay: cell-based. The conditions noted are these: calcium mobilization in vitro assay; differentiated IMR32 cells, 5 μM nitrendipine, 90 mM KCl. The method, then:
Unless noted otherwise, cell culture reagents were purchased from Mediatech of Herndon, Md. IMR32 cells (American Type Culture Collection, ATCC, Manassas, Va.) were routinely cultured in growth medium consisting of minimum essential medium containing 10% fetal bovine serum (FBS, Hyclone, Logan, Utah), 100 U/mL penicillin, 100 μg/mL streptomycin, 2 mM L-glutamine, 1 mM sodium pyruvate, and 1×MEM non-essential amino acids. 80-90% confluent flasks of cells were differentiated using the following differentiation medium: Growth medium plus 1 mM dibutyryl cyclic AMP (Sigma, St. Louis, Mo.), and 2.5 μM bromodeoxyuridine (Sigma). Cells were differentiated for 8 days by replacing differentiation medium every 2-3 days.
FLIPR Calcium Mobilization Assay for N-type Calcium Channel.
One day prior to performing this assay, differentiated IMR32 cells were treated with 1× CellStripper, and seeded on poly-D-lysine-coated 96-well clear-bottom black plates (Becton Dickinson, Franklin Lakes, N.J.) at 200,000 cells/well. On the day of the assay, the cell plates were washed with IMR32 buffer (127 mM NaCl, 1 mM KCl, 2 mM MgCl2, 700 μM NaH2PO4, 5 mM CaCl2, 5 mM NaHCO3, 8 mM HEPES, 10 mM glucose, pH7.4), then pre-stimulated with KCl and loaded as follows: 0.05 mL of IMR32 buffer, 0.05 mL of each compound tested diluted in IMR32 buffer containing 20 μM nitrendipine (Sigma), and 0.1 mL KCl dissolved in IMR32 buffer, plus Fluo-4 were added (3 μM final concentration, Molecular Probes, Eugene, Oreg.). Final test compound concentrations ranged from about 846 pM to about 17 μM, final nitrendipine concentration was 5 μM, and final KCl concentration was 90 mM. After 1 hour, the cells were washed twice with 0.05 mL of each compound tested in nitrendipine-containing IMR32 buffer (no KCl or Fluo-4), and then replaced with 0.1 mL of each compound tested in nitrendipine-containing IMR32 buffer. Plates were then transferred to a Fluorimetric Imaging Plate Reader (FLIPR^96, Molecular Devices, Inc., Sunnyvale, Calif.) for assay. The FLIPR measured basal Fluo-4 fluorescence for 315 seconds (i.e., 5 minutes and 15 seconds), then added 0.1 mL KCl agonist dissolved in IMR32 buffer and measured fluorescence for another 45 seconds. Final test compound concentrations on the cells after FLIPR read ranged from about 846 pM to about 17 μM, final nitrendipine concentration was 5 μM, and final KCl concentration was 90 mM. Data were collected over the entire time course and analyzed using Excel, Graph Pad Prism (version 3.02, Graph Pad, San Diego, Calif.), or an in-house non-linear regression analysis software.
(Calcium assays in cells follow changes in intracellular calcium, usually with a dye or a luminescent sensor.)

Assay [2] concerns the target T2, L-type calcium channel (LTCC) (Rattus norvegicus, UniProt P22002).
T2 construct: The 6.5 kb cDNA encoding the L-type calcium channel α1c subunit was cloned by PCR amplification from rat heart cDNA; expressed in transfected cells
Put plainly: FLIPR calcium mobilization assay for L-type calcium channel. The assay is classed as cell-based. The note with it: calcium mobilization in vitro assay; HEK293 cells stably expressing recombinant rat LTCC subunits (α1c, α2δ, β1), 90 mM KCl. How it is done:
Recombinant human embryonal kidney cells (HEK293, ATCC) stably transfected with either N-type calcium channel (NTCC) subunits (α1b, α2δ, and β3) or L-type calcium channel (LTCC) subunits (α1c, α2δ, and β1) were routinely cultured in growth medium consisting of Dulbecco's Modified Eagles Medium containing 10% FBS, 100 U/mL penicillin, 100 μg/mL streptomycin, 4 mM L-glutamine, 500 μg/mL geneticin (G418), 20 μg/mL Blasticidin S (InVivogen, San Diego, Calif.) and 500 μg/mL zeocin (InVivogen).
FLIPR Calcium Mobilization Assay for L-type Calcium Channel.
One day prior to performing this assay, HEK293 cells stably expressing recombinant rat L-type calcium channel (LTCC) subunits (α1c, α2δ, and β1) were trypsinized, then seeded on poly-D-lysine-coated 96-well clear-bottom black plates (Becton Dickinson, Franklin Lakes, N.J.) at 75,000 cells/well. On the day of the assay, the plates were washed with LTCC wash buffer (127 mM NaCl, 2 mM MgCl2, 700 μM NaH2PO4, 5 mM CaCl2, 5 mM NaHCO3, 8 mM HEPES, 10 mM glucose, pH7.4), then loaded with 0.1 mL of LTCC wash buffer containing Fluo-4 (3 μM final concentration, Molecular Probes, Eugene, Oreg.). After 1 hour, the cells were washed with 0.1 mL LTCC wash buffer and resuspended in 0.05 mL LTCC assay buffer (same composition as LTCC wash buffer). Plates were then transferred to a FLIPR^96 for assay. The FLIPR measured basal Fluo-4 fluorescence for 15 seconds, then added 0.05 mL of each compound tested diluted in LTCC assay buffer at final concentrations ranging from about 846 pM to about 17 μM. Fluo-4 fluorescence was then measured for 5 minutes. 0.1 mL KCl agonist dissolved in LTCC assay buffer was then added to the cells to produce a final concentration of 90 mM KCl, and fluorescence was measured for another 45 seconds. Data were collected over the entire time course and analyzed using Excel, Graph Pad Prism, or an in-house regression analysis software.

T2 sequence (P22002 whole entry): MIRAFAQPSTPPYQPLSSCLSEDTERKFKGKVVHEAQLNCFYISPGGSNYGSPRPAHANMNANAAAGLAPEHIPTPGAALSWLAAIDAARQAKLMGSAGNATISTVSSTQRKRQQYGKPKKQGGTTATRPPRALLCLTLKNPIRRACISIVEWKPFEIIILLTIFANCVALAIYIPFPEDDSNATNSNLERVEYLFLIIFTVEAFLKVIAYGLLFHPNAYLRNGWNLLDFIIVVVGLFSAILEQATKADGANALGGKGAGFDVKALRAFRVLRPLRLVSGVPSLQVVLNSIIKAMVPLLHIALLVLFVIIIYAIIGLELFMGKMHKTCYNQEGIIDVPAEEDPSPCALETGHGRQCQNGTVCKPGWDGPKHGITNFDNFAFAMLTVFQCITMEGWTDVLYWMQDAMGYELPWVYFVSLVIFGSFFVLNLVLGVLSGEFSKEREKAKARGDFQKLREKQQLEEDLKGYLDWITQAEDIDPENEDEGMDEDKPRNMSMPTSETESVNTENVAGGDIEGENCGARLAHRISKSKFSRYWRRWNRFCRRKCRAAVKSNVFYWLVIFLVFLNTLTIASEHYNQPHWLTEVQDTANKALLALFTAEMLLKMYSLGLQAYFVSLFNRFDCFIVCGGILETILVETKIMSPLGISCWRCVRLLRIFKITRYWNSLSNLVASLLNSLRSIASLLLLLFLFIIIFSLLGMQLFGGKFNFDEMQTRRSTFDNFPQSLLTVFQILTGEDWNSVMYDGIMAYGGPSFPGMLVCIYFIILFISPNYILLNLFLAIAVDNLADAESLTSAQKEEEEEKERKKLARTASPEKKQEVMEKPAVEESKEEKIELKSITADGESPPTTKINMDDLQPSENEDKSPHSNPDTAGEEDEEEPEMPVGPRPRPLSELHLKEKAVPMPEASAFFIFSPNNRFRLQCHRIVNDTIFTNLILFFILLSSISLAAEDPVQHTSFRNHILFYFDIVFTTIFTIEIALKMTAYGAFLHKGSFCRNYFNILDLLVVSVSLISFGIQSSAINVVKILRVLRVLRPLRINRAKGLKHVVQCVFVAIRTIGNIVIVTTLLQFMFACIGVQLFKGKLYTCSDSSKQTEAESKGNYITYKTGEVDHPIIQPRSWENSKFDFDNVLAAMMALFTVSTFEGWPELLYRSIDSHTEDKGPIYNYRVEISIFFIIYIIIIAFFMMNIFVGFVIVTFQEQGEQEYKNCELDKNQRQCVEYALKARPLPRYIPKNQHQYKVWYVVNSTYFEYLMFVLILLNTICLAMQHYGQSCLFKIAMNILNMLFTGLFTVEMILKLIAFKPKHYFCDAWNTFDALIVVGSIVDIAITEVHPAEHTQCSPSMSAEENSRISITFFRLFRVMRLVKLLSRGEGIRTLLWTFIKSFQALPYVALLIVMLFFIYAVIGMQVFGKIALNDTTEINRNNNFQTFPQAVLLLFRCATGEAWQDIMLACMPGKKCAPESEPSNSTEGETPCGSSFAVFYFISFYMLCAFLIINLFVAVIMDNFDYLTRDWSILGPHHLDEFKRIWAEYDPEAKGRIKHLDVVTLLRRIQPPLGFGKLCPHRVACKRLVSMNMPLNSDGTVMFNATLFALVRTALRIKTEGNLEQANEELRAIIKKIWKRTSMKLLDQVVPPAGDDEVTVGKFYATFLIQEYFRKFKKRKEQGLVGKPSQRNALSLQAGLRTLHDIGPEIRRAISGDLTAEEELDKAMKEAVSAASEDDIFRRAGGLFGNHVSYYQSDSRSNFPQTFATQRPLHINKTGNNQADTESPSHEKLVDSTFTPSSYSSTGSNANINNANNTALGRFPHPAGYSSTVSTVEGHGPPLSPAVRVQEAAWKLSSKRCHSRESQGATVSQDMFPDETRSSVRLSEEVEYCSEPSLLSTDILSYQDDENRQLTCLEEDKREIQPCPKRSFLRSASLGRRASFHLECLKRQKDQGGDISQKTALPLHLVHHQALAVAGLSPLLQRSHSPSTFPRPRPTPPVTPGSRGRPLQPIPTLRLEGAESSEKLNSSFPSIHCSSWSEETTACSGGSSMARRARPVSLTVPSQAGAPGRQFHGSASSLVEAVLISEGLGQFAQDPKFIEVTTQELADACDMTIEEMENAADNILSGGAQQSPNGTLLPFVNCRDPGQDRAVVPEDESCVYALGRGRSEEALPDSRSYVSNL
T2 sequence (P54290 25-944 partner limits assumed): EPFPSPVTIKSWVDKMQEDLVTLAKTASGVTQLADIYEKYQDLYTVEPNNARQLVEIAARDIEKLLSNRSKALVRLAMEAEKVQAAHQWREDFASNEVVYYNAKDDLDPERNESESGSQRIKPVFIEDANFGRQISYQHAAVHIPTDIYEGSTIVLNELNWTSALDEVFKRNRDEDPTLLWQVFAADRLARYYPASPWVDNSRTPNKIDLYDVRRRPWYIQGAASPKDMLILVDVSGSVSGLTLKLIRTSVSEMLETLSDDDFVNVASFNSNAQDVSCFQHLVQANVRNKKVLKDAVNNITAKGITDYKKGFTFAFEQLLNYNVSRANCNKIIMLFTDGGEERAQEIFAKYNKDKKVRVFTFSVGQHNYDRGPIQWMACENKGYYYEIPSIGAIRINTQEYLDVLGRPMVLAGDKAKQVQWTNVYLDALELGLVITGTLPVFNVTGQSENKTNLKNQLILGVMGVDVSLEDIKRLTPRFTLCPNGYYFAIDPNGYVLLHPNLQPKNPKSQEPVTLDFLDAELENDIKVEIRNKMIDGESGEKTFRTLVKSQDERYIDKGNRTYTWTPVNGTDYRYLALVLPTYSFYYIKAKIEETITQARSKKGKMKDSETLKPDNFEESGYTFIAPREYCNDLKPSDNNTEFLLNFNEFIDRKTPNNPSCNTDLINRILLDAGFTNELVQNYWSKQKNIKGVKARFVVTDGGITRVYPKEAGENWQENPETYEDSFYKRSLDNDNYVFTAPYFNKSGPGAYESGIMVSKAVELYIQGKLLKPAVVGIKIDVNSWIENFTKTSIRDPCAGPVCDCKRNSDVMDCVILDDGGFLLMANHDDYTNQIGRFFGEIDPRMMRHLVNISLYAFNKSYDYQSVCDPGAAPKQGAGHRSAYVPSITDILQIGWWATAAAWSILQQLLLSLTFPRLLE
T2 sequence (P54290 945-1091 partner limits assumed): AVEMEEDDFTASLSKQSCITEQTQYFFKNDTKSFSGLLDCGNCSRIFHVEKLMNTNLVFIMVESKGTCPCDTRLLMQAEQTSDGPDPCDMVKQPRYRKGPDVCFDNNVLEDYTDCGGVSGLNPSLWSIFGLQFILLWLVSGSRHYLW
T2 sequence (P54283 whole entry partner): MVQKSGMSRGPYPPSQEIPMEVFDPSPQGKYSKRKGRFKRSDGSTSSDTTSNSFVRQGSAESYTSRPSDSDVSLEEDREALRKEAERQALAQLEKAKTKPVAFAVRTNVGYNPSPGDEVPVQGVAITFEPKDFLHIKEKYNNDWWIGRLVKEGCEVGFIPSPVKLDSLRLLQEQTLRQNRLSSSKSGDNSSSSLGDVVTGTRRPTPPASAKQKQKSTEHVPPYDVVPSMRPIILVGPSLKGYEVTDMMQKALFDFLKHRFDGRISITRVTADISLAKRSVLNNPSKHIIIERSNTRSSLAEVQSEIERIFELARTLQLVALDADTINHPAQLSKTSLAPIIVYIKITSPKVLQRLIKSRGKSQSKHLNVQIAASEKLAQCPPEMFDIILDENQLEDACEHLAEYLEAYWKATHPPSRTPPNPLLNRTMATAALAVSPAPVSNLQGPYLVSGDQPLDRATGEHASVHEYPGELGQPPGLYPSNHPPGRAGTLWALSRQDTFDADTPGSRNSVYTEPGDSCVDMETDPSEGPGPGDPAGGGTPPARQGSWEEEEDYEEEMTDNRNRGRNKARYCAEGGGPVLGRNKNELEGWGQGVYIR

The term IC50 denotes the concentration at which inhibition is half-maximal. For `N[C@@H]1CCCC[C@@H]1C(=O)N1CCC(N(C2CC2)S(=O)(=O)c2cccc(C(F)(F)F)c2)CC1` (racemic) [Compound 4, rac-N-[1-((1S,2R)-2-Amino-cyclohexanecarbonyl)-piperidin-4-yl]-N-cyclopropyl-3-trifluoromethyl-benzenesulfonamide], the IC50 in assay [1] is 0.57 µM; in assay [2] it was greater than 20 µM.

On to `N[C@@H]1CCC[C@@H]1C(=O)N1CCC(N(C2CC2)S(=O)(=O)c2cccc(C(F)(F)F)c2)CC1` (racemic) [Compound 5, rac-N-[1-((1S,2R)-2-Amino-cyclopentanecarbonyl)-piperidin-4-yl]-N-cyclopropyl-3-trifluoromethyl-benzenesulfonamide], for which the IC50 is 0.29 µM in assay [1] and greater than 20 µM in assay [2]. In the case of `CC(C)N(C1CCN(C(=O)[C@H]2CCC[C@H]2N)CC1)S(=O)(=O)c1cccc(C(F)(F)F)c1` (racemic) [rac-N-[1-((1S,2R)-2-amino-cyclopentanecarbonyl)-piperidin-4-yl}-N-isopropyl-3-trifluoromethylbenzenesulfonamide], the IC50 in assay [1] came to 3.69 µM.

In the case of `O=C(CCN1CCC(O)CC1)N1CCC(N(C2CC2)S(=O)(=O)c2cccc(C(F)(F)F)c2)CC1` [Compound 2, N-Cyclopropyl-N-{1-[3-(4-hydroxy-piperidin-1-yl)-propionyl]-piperidin-4-yl}-3-trifluoromethyl-benzenesulfonamide], in assay [1], the IC50 was 2.47 µM. Turning to `O=C(CCN[C@H]1CC[C@H](O)CC1)N1CCC(N(C2CC2)S(=O)(=O)c2cccc(C(F)(F)F)c2)CC1` [Compound 3, N-Cyclopropyl-N-{1-[3-(4-hydroxy-cyclohexylamino)-propionyl]-piperidin-4-yl}-3-trifluoromethyl-benzenesulfonamide], the IC50 in assay [1] was 3.04 µM. The same measure, in the same setting: as for `O=C(c1ccc(=O)[nH]c1)N1CCC(N(C2CC2)S(=O)(=O)c2cccc(C(F)(F)F)c2)CC1` [Compound 6, N-Cyclopropyl-N-[1-(6-oxo-1,6-dihydro-pyridine-3-carbonyl)-piperidin-4-yl]-3-trifluoromethyl-benzenesulfonamide], the figure is 8.58 µM; as for `O=C(c1ccccn1)N1CCC(N(C2CC2)S(=O)(=O)c2cccc(C(F)(F)F)c2)CC1` [Compound 7, N-Cyclopropyl-N-[1-(pyridine-2-carbonyl)-piperidin-4-yl]-3-trifluoromethyl-benzenesulfonamide], 5.53 µM.

`O=C(c1cccnc1)N1CCC(N(C2CC2)S(=O)(=O)c2cccc(C(F)(F)F)c2)CC1` [Compound 8, N-Cyclopropyl-N-[1-(pyridine-3-carbonyl)-piperidin-4-yl]-3-trifluoromethyl-benzenesulfonamide]: the IC50 in assay [1] is 7.25 µM. Take `O=C(c1ccncc1)N1CCC(N(C2CC2)S(=O)(=O)c2cccc(C(F)(F)F)c2)CC1` [Compound 9, N-Cyclopropyl-N-[1-(pyridine-4-carbonyl)-piperidin-4-yl]-3-trifluoromethyl-benzenesulfonamide]: in assay [1], the IC50 was 8.68 µM. Consider `O=C(c1ccccc1[N+](=O)[O-])N1CCC(N(C2CC2)S(=O)(=O)c2cccc(C(F)(F)F)c2)CC1` [Compound 10, N-Cyclopropyl-N-[1-(2-nitro-benzoyl)-piperidin-4-yl]-3-trifluoromethyl-benzenesulfonamide], for which the figures for the IC50 in assay [1] and in assay [2] were 0.76 µM and 3.06 µM, respectively. For the molecule `Nc1ccccc1C(=O)N1CCC(N(C2CC2)S(=O)(=O)c2cccc(C(F)(F)F)c2)CC1` [Compound 11, N-[1-(2-Amino-benzoyl)-piperidin-4-yl]-N-cyclopropyl-3-trifluoromethyl-benzenesulfonamide], the IC50 is 0.68 µM in assay [1] and 10 to 20 µM in assay [2]. Take `O=C(c1ccccc1NCCO)N1CCC(N(C2CC2)S(=O)(=O)c2cccc(C(F)(F)F)c2)CC1` [Compound 13, N-Cyclopropyl-N-{1-[2-(2-hydroxy-ethylamino)-benzoyl]-piperidin-4-yl}-3-trifluoromethyl-benzenesulfonamide]: the IC50 in assay [1] was 0.33 µM; in assay [2] it was greater than 20 µM. Consider `CC(C)N(C1CCN(C(=O)CNC2CCCCC2)CC1)S(=O)(=O)c1cccc(C(F)(F)F)c1` [Compound 25a, N-[1-(2-Cyclohexylamino-acetyl)-piperidin-4-yl]-N-isopropyl-3-trifluoromethylbenzenesulfonamide], for which the values for the IC50 in assay [1] and in assay [2] were 0.19 µM and 10 to 20 µM, respectively. In the case of `CC(C)N(C1CCN(C(=O)CN2CCCC(O)C2)CC1)S(=O)(=O)c1cccc(C(F)(F)F)c1` (stereo not drawn) [Compound 25b, N-{1-[2-(3-Hydroxy-piperidin-1-yl)-acetyl]-piperidin-4-yl}-N-isopropyl-3-trifluoromethylbenzenesulfonamide], the IC50 in assay [1] is 3.35 µM. As for `O=C(CNC1CCCC1)N1CCC(N(C2CC2)S(=O)(=O)c2cccc(C(F)(F)F)c2)CC1` [Compound 25c, N-[1-(2-Cyclopentylamino-acetyl)-piperidin-4-yl]-N-cyclopropyl-3-trifluoromethylbenzenesulfonamide], the IC50 in assay [1] was 0.28 µM; in assay [2], greater than 20 µM. For `CC(C)N(C1CCN(C(=O)CN2Cc3ccccc3C2)CC1)S(=O)(=O)c1cccc(C(F)(F)F)c1` [Compound 25d, N-[1-(2-1,3-Dihydro-isoindol-2-yl-acetyl)-piperidin-4-yl]-N-isopropyl-3-trifluoromethylbenzenesulfonamide], the IC50 in assay [1] worked out at 1.14 µM. Turning to `CC(C)N(C1CCN(C(=O)CN2CCCC(F)(F)C2)CC1)S(=O)(=O)c1cccc(C(F)(F)F)c1` [Compound 25e, N-{1-[2-(3,3-Difluoro-piperidin-1-yl)-acetyl]-piperidin-4-yl}-N-isopropyl-3-trifluoromethylbenzenesulfonamide], the IC50 in assay [1] is 0.88 µM; in assay [2], greater than 20 µM.

With `CC(C)N(C1CCN(C(=O)CN2CCC(F)(F)C2)CC1)S(=O)(=O)c1cccc(C(F)(F)F)c1` [Compound 25f, N-{1-[2-(3,3-Difluoro-pyrrolidin-1-yl)-acetyl]-piperidin-4-yl}-N-isopropyl-3-trifluoromethylbenzenesulfonamide], the IC50 amounted to 3.98 µM in assay [1] and 7.81 µM in assay [2].
